Measured values published in ChEMBL document CHEMBL4251641, “Biotin conjugated organic molecules and proteins for cancer therapy: A review” (Eur J Med Chem, 2018).
Where a SMILES comes first, the peptide text is derived from it. Bridges are numbered along the chain shown (N, C = ends).

How the values were obtained:
[1] = Inhibition of high-voltage activated calcium channel (unknown origin) expressed in NG108-15 cells at -90 mV holding potential by whole cell patch clamp assay; format: cell-based; conditions: Homo sapiens
[2] = Half life in human plasma; format: ADME, cell-free
[3] = Cytotoxicity against mouse L1210FR cells assessed as cell growth inhibition after 72 hrs by MTT assay; format: functional, cell-based
L1210 = assay: Cytotoxicity against mouse L1210 cells assessed as cell growth inhibition after 72 hrs by MTT assay; format: functional, cell-based; conditions: L1210, 72 h
WI-38 = assay: Cytotoxicity against human WI38 cells assessed as cell growth inhibition after 72 hrs by MTT assay; format: cell-based; conditions: WI-38, 72 h
[4] = Selectivity ratio of IC50 for human WI38 cells to IC50 for mouse L1210FR cells; format: toxicity; conditions: WI38 cells and L1210FR cells, read-out: Ratio IC50
[5] = Selectivity ratio of IC50 for mouse L1210 cells to IC50 for mouse L1210FR cells; format: functional

CC(C)C[C@H](NC(=O)[C@H](CCCCN)NC(=O)[C@H](Cc1c[nH]c2ccccc12)NC(=O)[C@H](CCCCN)NC(=O)[C@@H]1CSSC[C@@H]2NC(=O)[C@H](CCC(=O)O)NC(=O)[C@H](CC(N)=O)NC(=O)[C@H](CCCCN)NC(=O)CNC(=O)[C@@H]3CCCN3C(=O)[C@H]([C@@H](C)O)NC(=O)[C@@H]3CSSC[C@H](NC(=O)[C@H](C(C)C)NC(=O)[C@H](CCCNC(=N)N)NC(=O)[C@H](CC(N)=O)NC(=O)[C@@H]4CCCN4C(=O)[C@H](CSSC[C@H](NC(=O)[C@H](C)N)C(=O)N[C@@H](CCCCN)C(=O)NCC(=O)N[C@@H](C(C)C)C(=O)N[C@@H](Cc4ccccc4)C(=O)N[C@@H](CC(=O)O)C(=O)N[C@@H](C)C(=O)N3)NC2=O)C(=O)N[C@@H](CO)C(=O)N[C@@H](CC(=O)O)C(=O)N[C@@H](CCCCN)C(=O)N[C@@H](Cc2cnc[nH]2)C(=O)N[C@@H](CCCCN)C(=O)N[C@@H](Cc2c[nH]c3ccccc23)C(=O)N1)C(=O)O (H-ACKGVFDACTPGKNECCPNRVCSDKHKWCKWKL-OH; disulfide 2-17, 9-22, 16-29)
EC50 [1]: 100 nM

Nc1ccn([C@@H]2O[C@H](CO)[C@@H](O)C2(F)F)c(=O)n1 [GEMCITABINE]
half-life [2]: 9 to 13 min

CC(=O)O[C@@]12CO[C@@H]1C[C@H](O)[C@@]1(C)C(=O)[C@H](OC(=O)C3CC3)C3=C(C)[C@@H](OC(=O)[C@H](OC(=O)Cc4ccccc4SSCCC(=O)NNC(=O)CCCC[C@@H]4SC[C@@H]5NC(=O)N[C@@H]54)[C@H](C=C(C)C)NC(=O)OC(C)(C)C)C[C@@](O)([C@@H](OC(=O)c4ccccc4)[C@H]21)C3(C)C
IC50 [3]: 8.8 nM
IC50 (L1210): 522 nM
IC50 (WI-38): 570 nM
selectivity ratio [4]: 65
Ratio IC50 [5]: 59
